Values after ≈ are worked out from the molar mass of the structure shown. Read-outs that look alike come from different tables or passages of the source.
Key:
[1] = tested on: M. tuberculosis; assay: MIC by resazurin (REMA) assay against Mycobacterium, test strain 20; type: cell-based
Procedure: (§1) In order to test the antibacterial activity, the medium of Mycobacterium cultured to late log phase was diluted so as to be 4.0×10^5 cells/well in Middlebrook 7H10 agar medium (Difco) supplemented with 10% oleic acid, albumin, dextrose, catalase (OADC, Becton Dickinson) and 0.05% Tween 80 (Sigma Aldrich) and was dispensed into a 96-well plate. The compounds were treated so that DMSO was 1%, and after 3 days, a 0.025% resazurin (REMA) solution was dispensed, and the growth of the bacteria was confirmed after culturing. The MIC value was measured for the antibacterial activity through resazurin (excitation 530 nm, emission 590 nm).

[2] = tested on: S. aureus^VR; assay: MIC by broth microdilution (aerobic pathogens), test strain 4; type: cell-based, Vancomycin resistant Staphylococcus aureus; conditions: Staphylococcus aureus
Procedure: (§2) The antibacterial activity of the compounds of Examples 1 to 48 of the present invention against aerobic pathogens were evaluated by measuring the minimum concentration of the antibiotic capable of inhibiting bacterial growth by 90% compared to the growth of the non-drug treated control group. MIC was measured by the broth microdilution method based on CLSI standards [Reference: Clinical and Laboratory Standards Institute Document. (2000) Methods for Dilution Antimicrobial Susceptibility Test for Bacteria that Grow Aerobically-Fifth Edition: M7-A5. CLSI, Villanova, PA].
(§3) All 13 strains such as methicillin susceptible Staphylococcus aureus (MSSA), methicillin resistant Staphylococcus aureus (MRSA), Vancomycin resistant Staphylococcus aureus (VRSA), Staphylococcus epidermidis, methicillin resistant Staphylococcus epidermidis, Enterococcus faecalis, Vancomycin resistant Enterococcus faecalis, Enterococcus faecium, Vancomycin resistant Enterococcus faecium were used.

[3] = tested on: E. faecium; assay: MIC by broth microdilution (aerobic pathogens), test strain 10; type: cell-based; conditions: Enterococcus faecium
Outline: (§4)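 MIC values come from a CLSI-standard broth microdilution method against a 13-strain panel spanning susceptible and vancomycin- or methicillin-resistant staphylococci and enterococci; 90% inhibition versus untreated growth defined the endpoint.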

[4] = tested on: C. difficile 161; assay: MIC by agar dilution against Clostridioides difficile, test strain 16; type: cell-based; conditions: test strain 16, C. difficile 161, anaerobic, agar dilution, read-out: MIC
[5] = tested on: S. aureus^MS; assay: MIC by broth microdilution (aerobic pathogens), test strain 2; type: cell-based; conditions: Staphylococcus aureus
Outline: as §4

[6] = tested on: C. difficile 173; assay: MIC by agar dilution against Clostridioides difficile, test strain 17; type: cell-based
[7] = tested on: C. difficile 174; assay: MIC by agar dilution against Clostridioides difficile, test strain 18; type: cell-based
[8] = tested on: E. faecium^LinR; assay: MIC by broth microdilution (aerobic pathogens), test strain 12; type: cell-based, Linezolid resistant Enterococcus faecium; conditions: Enterococcus faecium
Outline: as §4

[9] = tested on: E. faecalis; assay: MIC by broth microdilution (aerobic pathogens), test strain 7; type: cell-based; conditions: Enterococcus faecalis
Outline: as §4

[10] = tested on: E. faecalis^VanA; assay: MIC by broth microdilution (aerobic pathogens), test strain 8; type: cell-based, Vancomycin resistant Enterococcus faecalis; conditions: Enterococcus faecalis
Outline: as §4

[11] = tested on: S. epidermis^MR; assay: MIC by broth microdilution (aerobic pathogens), test strain 6; type: cell-based, Methicillin resistant Staphylococcus epidermidis; conditions: Staphylococcus epidermidis
Outline: as §4

[12] = tested on: S. aureus^MS; assay: MIC by broth microdilution (aerobic pathogens), test strain 1; type: cell-based; conditions: Staphylococcus aureus
Outline: as §4

[13] = tested on: S. epidermis; assay: MIC by broth microdilution (aerobic pathogens), test strain 5; type: cell-based; conditions: Staphylococcus epidermidis
Outline: as §4

[14] = tested on: E. faecalis^LinR; assay: MIC by broth microdilution (aerobic pathogens), test strain 9; type: cell-based, Linezolid resistant Enterococcus faecalis; conditions: Enterococcus faecalis
Outline: as §4

[15] = tested on: C. difficile 159; assay: MIC by agar dilution against Clostridioides difficile, test strain 15; type: cell-based
[16] = tested on: C. difficile 152; assay: MIC by agar dilution against Clostridioides difficile, test strain 14; type: cell-based
[17] = tested on: C. difficile 181; assay: MIC by agar dilution against Clostridioides difficile, test strain 19; type: cell-based
[18] = tested on: E. faecium^VRE; assay: MIC by broth microdilution (aerobic pathogens), test strain 11; type: cell-based, Vancomycin resistant Enterococcus faecium; conditions: Enterococcus faecium; test strain 11, E. faecium^VRE (vancomycin resistant); read-out: MIC
Procedure: as §2, §3

[19] = tested on: S. aureus^MR; assay: MIC by broth microdilution (aerobic pathogens), test strain 3; type: cell-based, Methicillin resistant Staphylococcus aureus; conditions: Staphylococcus aureus
Procedure: as §2, §3

[20] = tested on: M. intracelluare; assay: MIC by resazurin (REMA) assay against Mycobacterium, test strain 22; type: cell-based; conditions: Mycobacterium intracellulare
Procedure: as §1

[21] = tested on: M. avium; assay: MIC by resazurin (REMA) assay against Mycobacterium, test strain 21; type: cell-based
Procedure: as §1

[22] = tested on: M. abscessus; assay: MIC by resazurin (REMA) assay against Mycobacterium, test strain 23; type: cell-based; conditions: Mycobacteroides abscessus
Procedure: as §1

[23] = tested on: C. difficile 9689; assay: MIC by agar dilution against Clostridioides difficile, test strain 13; type: cell-based; conditions: 9689
[24] = test strain 4, S. aureus^VR (vancomycin resistant), read-out: MIC
[25] = test strain 10, E. faecium, read-out: MIC
[26] = test strain 2, S. aureus^MS, read-out: MIC
[27] = test strain 17, C. difficile 173, anaerobic, agar dilution, read-out: MIC
[28] = test strain 18, C. difficile 174, anaerobic, agar dilution, read-out: MIC
[29] = test strain 12, E. faecium^LinR (linezolid resistant), read-out: MIC
[30] = test strain 7, E. faecalis, read-out: MIC
[31] = test strain 8, E. faecalis^VanA (vancomycin resistant), read-out: MIC
[32] = test strain 6, S. epidermis^MR (methicillin resistant), read-out: MIC
[33] = test strain 1, S. aureus^MS, read-out: MIC
[34] = test strain 5, S. epidermis, read-out: MIC
[35] = test strain 9, E. faecalis^LinR (linezolid resistant), read-out: MIC
[36] = test strain 3, S. aureus^MR (methicillin resistant), read-out: MIC

| Structure (SMILES) | MIC [1] [µg/mL] | MIC [2, 24] [µg/mL] | MIC [3, 25] [µg/mL] | MIC [4] [µg/mL] | MIC [5, 26] [µg/mL] | MIC [6, 27] [µg/mL] | MIC [7, 28] [µg/mL] | MIC [8, 29] [µg/mL] | MIC [9, 30] [µg/mL] | MIC [10, 31] [µg/mL] | MIC [11, 32] [µg/mL] | MIC [12, 33] [µg/mL] | MIC [13, 34] [µg/mL] | MIC [14, 35] [µg/mL] | MIC [19, 36] [µg/mL] | MIC [20] [µg/mL] | MIC [9] [µg/mL] | MIC [21] [µg/mL] | MIC [22] [µg/mL] | MIC [13] [µg/mL] | further results |
| --- | --- | --- | --- | --- | --- | --- | --- | --- | --- | --- | --- | --- | --- | --- | --- | --- | --- | --- | --- | --- | --- |
| C/C=C(\NC(=O)c1csc(-c2csc(-c3ccc4c(n3)-c3csc(n3)[C@H]([C@@H](C)O)NC(=O)c3csc(n3)[C@H](C(C)C)NC(=O)c3csc(n3)/C(=C/C)NC(=O)[C@H]([C@@H](C)O)NC(=O)c3csc-4n3)n2)n1)C(=O)NCCN1CCOCC1 [Compound 1] | 0.076 (≈ 0.0634 µM) | 1 (≈ 0.834 µM) | 0.5 (≈ 0.417 µM) | 0.5 (≈ 0.417 µM) | 0.125 (≈ 0.104 µM) | 1 (≈ 0.834 µM) | 0.5 (≈ 0.417 µM) | 1 (≈ 0.834 µM) | 0.25 (≈ 0.208 µM) | 0.125 (≈ 0.104 µM) | 0.125 (≈ 0.104 µM) | 0.125 (≈ 0.104 µM) | 0.125 (≈ 0.104 µM) | 0.125 (≈ 0.104 µM) |  |  |  |  |  |  |  |
| C/C=C(\NC(=O)c1csc(-c2csc(-c3ccc4c(n3)-c3csc(n3)[C@H]([C@@H](C)O)NC(=O)c3csc(n3)[C@H](C(C)C)NC(=O)c3csc(n3)/C(=C/C)NC(=O)[C@H]([C@@H](C)O)NC(=O)c3csc-4n3)n2)n1)C(=O)NCCn1c([N+](=O)[O-])cnc1C [Compound 3] | 0.1 (≈ 0.0807 µM) | 0.25 (≈ 0.202 µM) | 0.125 (≈ 0.101 µM) | 0.25 (≈ 0.202 µM) | < 0.0625 | 0.5 (≈ 0.403 µM) | 0.25 (≈ 0.202 µM) | 0.25 (≈ 0.202 µM) | 0.0625 (≈ 0.0504 µM) | 0.125 (≈ 0.101 µM) | 0.125 (≈ 0.101 µM) | 0.0625 (≈ 0.0504 µM) | 0.25 (≈ 0.202 µM) | 0.125 (≈ 0.101 µM) | 1 (≈ 0.807 µM) |  |  |  |  |  | MIC ([15]; test strain 15, C. difficile 159, anaerobic, agar dilution, read-out: MIC): 1 µg/mL (≈ 0.807 µM); MIC ([16]; test strain 14, C. difficile 152, anaerobic, agar dilution, read-out: MIC): 1 µg/mL (≈ 0.807 µM); MIC ([17]; test strain 19, C. difficile 181, anaerobic, agar dilution, read-out: MIC): 0.5 µg/mL (≈ 0.403 µM); MIC [18]: 0.25 µg/mL (≈ 0.202 µM) |
| C/C=C1\NC(=O)[C@H]([C@@H](C)O)NC(=O)c2csc(n2)-c2ccc(-c3nc(-c4nc(C(=O)NC5(C(=O)NCCN6CCN(C)CC6)CC5)cs4)cs3)nc2-c2csc(n2)[C@H]([C@@H](C)O)NC(=O)c2csc(n2)[C@H](C(C)C)NC(=O)c2csc1n2 [Compound 4] |  | 1 (≈ 0.825 µM) | 0.5 (≈ 0.412 µM) |  | 0.5 (≈ 0.412 µM) |  |  | 1 (≈ 0.825 µM) |  | 0.5 (≈ 0.412 µM) | 0.5 (≈ 0.412 µM) | 0.5 (≈ 0.412 µM) |  | 1 (≈ 0.825 µM) | 1 (≈ 0.825 µM) | 0.143 (≈ 0.118 µM) | 0.25 (≈ 0.206 µM) | 0.115 (≈ 0.0948 µM) | 0.157 (≈ 0.129 µM) | 0.25 (≈ 0.206 µM) |  |
| C/C=C1\NC(=O)[C@H]([C@@H](C)O)NC(=O)c2csc(n2)-c2ccc(-c3nc(-c4nc(C(=O)NC5(C(=O)NCCN6C(=O)CNC6=O)CC5)cs4)cs3)nc2-c2csc(n2)[C@H]([C@@H](C)O)NC(=O)c2csc(n2)[C@H](C(C)C)NC(=O)c2csc1n2 [Compound 5] |  |  |  |  |  |  |  |  |  |  |  |  |  |  |  | 0.155 (≈ 0.128 µM) | 0.25 (≈ 0.206 µM) | 0.043 (≈ 0.0355 µM) | 0.504 (≈ 0.416 µM) | 0.5 (≈ 0.412 µM) | MIC [2]: 1 µg/mL (≈ 0.825 µM); MIC [3]: 1 µg/mL (≈ 0.825 µM); MIC [5]: 0.25 µg/mL (≈ 0.206 µM); MIC [15]; 159: 1 µg/mL (≈ 0.825 µM); MIC [6]; 173: 1 µg/mL (≈ 0.825 µM); MIC [7]; 174: 0.25 µg/mL (≈ 0.206 µM); MIC [8]: 0.5 µg/mL (≈ 0.412 µM); MIC [16]; 152: 0.5 µg/mL (≈ 0.412 µM); MIC [17]; 181: 0.125 µg/mL (≈ 0.103 µM); MIC [23]: 1 µg/mL (≈ 0.825 µM); MIC [10]: 0.5 µg/mL (≈ 0.412 µM); MIC [11]: 0.5 µg/mL (≈ 0.412 µM); MIC [12]: 0.25 µg/mL (≈ 0.206 µM); MIC [19]: 1 µg/mL (≈ 0.825 µM); MIC [14]: 0.5 µg/mL (≈ 0.412 µM) |

Source: patent publication US12637478B2, “Compound, preparation method thereof, and antibiotic composition comprising same” (priority 2020, dated 2026)
